pIC50: −log10 of the molar value.
Each compound was assayed against T1, human recombinant phosphodiesterase IVb (met-248) (Homo sapiens, UniProt Q07343) (assay: SPA based PDE activity assay). Conditions: 100 nM cAMP, purified GST fusion protein of PDE IVb (met-248) from baculovirus/Sf-9.
T1 construct: fused on or other part: GST (glutathione transferase) fused on as a tag
Format: biochemical
Method: Compounds which inhibit the hydrolysis of cAMP to AMP by the type-IV cAMP-specific phosphodiesterases were screened in a 96-well plate format as follows:
In a 96 well-plate at 30° C. was added the test compound (dissolved in 2 μL DMSO), […] of substrate buffer containing [2,8-^3H] adenosine 3′,5′-cyclic phosphate (cAMP, 110 nM to 50 μM), 10 mM MgCl2, 1 mM EDTA, 50 mM Tris, pH 7.5. The reaction was initiated by the addition of […] of human recombinant PDE4 (the amount was controlled so that ˜10% product was formed in 10 min.). The reaction was stopped after 10 min. by the addition of 1 mg of PDE-SPA beads (Amersham Pharmacia Biotech, Inc., Piscataway, N.J.). The product AMP generated was quantified on a Wallac Microbeta® 96-well plate counter (EG&G Wallac Co., Gaithersburg, Md.). The signal in the absence of enzyme was defined as the background. 100% activity was defined as the signal detected in the presence of enzyme and DMSO with the background subtracted. Percentage of inhibition was calculated accordingly. IC50 value was approximated with a non-linear regression fit using the standard 4-parameter/multiple binding sites equation from a ten point titration.
The IC50 values of the Examples disclosed here under were determined with 100 nM cAMP using the purified GST fusion protein of the human recombinant phosphodiesterase IVb (met-248) produced from a baculovirus/Sf-9 expression system.

T1 sequence (Q07343 236-736): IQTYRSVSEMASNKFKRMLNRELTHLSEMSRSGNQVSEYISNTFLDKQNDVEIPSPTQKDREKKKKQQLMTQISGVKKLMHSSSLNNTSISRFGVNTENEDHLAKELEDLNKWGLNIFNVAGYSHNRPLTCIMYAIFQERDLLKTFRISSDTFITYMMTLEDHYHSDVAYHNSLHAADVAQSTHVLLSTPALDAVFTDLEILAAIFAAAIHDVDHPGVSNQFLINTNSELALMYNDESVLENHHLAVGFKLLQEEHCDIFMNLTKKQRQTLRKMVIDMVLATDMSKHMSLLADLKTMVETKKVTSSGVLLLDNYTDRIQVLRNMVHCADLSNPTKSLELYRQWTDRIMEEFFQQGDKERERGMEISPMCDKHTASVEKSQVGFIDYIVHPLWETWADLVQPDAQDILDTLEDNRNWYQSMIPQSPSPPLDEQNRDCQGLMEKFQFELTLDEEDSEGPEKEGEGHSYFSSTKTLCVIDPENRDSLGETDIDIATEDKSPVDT

Point of comparison: `O=C(NC1CC1)c1cn(-c2cccc(-c3ccc(C4CC4C(=O)O)c(F)c3)c2)c2ncccc2c1=O` (single isomer, unassigned; isomer 2) [12-(−)-isomer, 2-{3′-[3-[(Cyclopropylamino)carbonyl]-4-oxo-1,8-naphthyridin-1(4H)-yl]-3-fluoro-1,1′-biphenyl-4-yl}cyclopropanecarboxylic acid], pIC50 9.40. Against it:
- O=C(NCC(F)(F)F)c1cn(-c2cccc(-c3ccc([C@@H]4C[C@H]4C(=O)O)cc3)c2)c2ncccc2c1=O (single isomer, unassigned; (+)) [24-(+)-isomer, (+)-(trans)-2-{3′-[4-oxo-3-{[(2,2,2-trifluoroethyl)amino]carbonyl}-1,8-naphthyridin-1(4H)-yl]biphenyl-4-yl}cyclopropanecarboxylic acid] — the same, 9.40
- O=C(NCC(F)(F)F)c1cn(-c2cccc(-c3ccc(C4CC4C(=O)O)c(F)c3)c2)c2ncccc2c1=O (single isomer, unassigned; (+)) [Example 29, (+)-(trans)-2-{3-fluoro-3′-[4-oxo-3-{[(2,2,2-trifluoroethyl)amino]carbonyl}-1,8-naphthyridin-1(4H)-yl]biphenyl-4-yl}cyclopropanecarboxylic acid] — within 0.2 log units, 9.52
- O=C(NC1CC1)c1cn(-c2cccc(-c3ccc([C@H]4C[C@H]4C(=O)O)cc3)c2)c2ncccc2c1=O (single isomer, unassigned; isomer 2) [8-(−)-isomer, 2-(cis)-{3′-[3-[(Cyclopropylamino)carbonyl]-4-oxo-1,8-naphthyridin-1(4H)-yl]-1,1′-biphenyl-4-yl}cyclopropanecarboxylic acid] — 0.25 log units lower, 9.15
- O=C(NC1CC1)c1cn(-c2cccc(-c3cccc(C4CC4C(=O)O)c3)c2)c2ncccc2c1=O (centres unmarked) [Example 2] — 0.30 log units higher, 9.70
- CC(C)(CC(=O)O)c1ccc(-c2cccc(-n3cc(C(=O)NC4CC4)c(=O)c4cccnc43)c2)cc1 [Example 5, 3-{3′-[3-[(Cyclopropylamino)carbonyl]4-oxo-1,8-naphthyridin-1(4H)-yl]-1,1′-biphenyl-4-yl}-3-methylbutanoic acid] — within 0.2 log units, 9.22
- O=C(NC1CC1)c1cn(-c2cccc(-c3ccc(C4CC4C(=O)O)c(Cl)c3)c2)c2ncccc2c1=O (centres unmarked) [Example 17, 2-{3-Chloro-3′-[3-[(cyclopropylamino)carbonyl]-4-oxo-1,8-naphthyridin-1(4H)-yl]-1,1′-biphenyl-4-yl}cyclopropanecarboxylic acid] — 0.60 log units higher, 10.00
- O=C(NCC1CC1)c1cn(-c2cccc(-c3ccc(C4CC4C(=O)O)cc3)c2)c2ncccc2c1=O (centres unmarked) [Example 26, 2-{3′-[3-{[(Cyclopropylmethyl)amino]carbonyl}4-oxo-1,8-naphthyridin-1(4H)-yl]-1,1′-biphenyl-4-yl}cyclopropanecarboxylic acid] — 0.30 log units higher, 9.70
